The values that follow are results of earlier work, collected in patent publication US20040197402A1, “Oxcarbazepine dosage forms” (priority 2001, published 2004).

For this data set the following is noted: background statement.

In the case of `NC(=O)N1c2ccccc2CC(=O)c2ccccc21` [Oxcarbazepine, 10, 11-dihydro-10-oxo-5H-dibenz [b,f], azepine-5-carboxamide], the solubility in water entry is “poor solubility in water”.
